Earlier results as cited in patent publication US20140350097A1, “TREATMENT OF HYPOTENSION ASSOCIATED WITH HEMODIALYSIS” (priority 2013, published 2014).

Columns and labels:
[1] = test system: normal animals and animals with hypotensive shock; details: cited from earlier work
[2] = test system: LPS-induced hypotension in animals; details: intravenous injection; cited from earlier work

In the case of `CNC(=N)NCCC[C@H](N)C(=O)O` [N-monomethyl-L-arginine, N^G-monomethyl-L-arginine], the “effect on blood pressure” value [1] is listed as “can cause hypertension” and the “effect on LPS-induced hypotension” value [2] is listed as “reverse LPS-induced hypotension”.
